Measured values reported in patent publication US7135489B2, “Crystalline form of 4-[5-methyl-3-phenylisoxazol-4-yl] benzenesulfonamide” (G. D. Searle & Co., priority 1996, dated 2006).

What was measured:
Assay type in all cases: physicochemical
[1] = Stability after mechanical grinding (milling)
[2] = Thermal stability of crystal form
Experimental: Melting points were performed either on a Thomas Hoover melting point apparatus or a Mettler FP900 Thermosystem melting point apparatus. Melting ranges were determined by differential scanning calorimetry on a TA Instruments Differential Scanning Calorimeter (Model 2100 controller, Model 912 dual calorimeter). The sample (1-2 mg) was placed in an unsealed aluminum pan and heated at 10° C./minute.

[3] = Stability of crystalline form compared with the earlier form; details: compared with earlier material Form A

Structure (SMILES) | stability after mechanical grinding (milling) [1] | thermal stability [2] | stability relative to Form A [3]
Cc1onc(-c2ccccc2)c1-c1ccc(S(N)(=O)=O)cc1 [Form A, 4-[5-methyl-3-phenylisoxazol-4-yl]benzenesulfonamide] | unstable | thermally unstable | 
Cc1onc(-c2ccccc2)c1-c1ccc(S(N)(=O)=O)cc1 [Form B, 4-[5-methyl-3-phenylisoxazol-4-yl]benzenesulfonamide] |  |  | more stable
